Legend:
[1] = water; cited from earlier work
Penicillium citrinum = assay: Determination of Minimum Inhibitory Concentrations (MIC), Sabouraud media; format: cell-based; details: Amical in free form
Description: (§1) The efficacy of Amical in comparison to Amical/methyl-β-cyclodextrin inclusion compound against different microorganism was tested by measuring the Minimum Inhibitory Concentrations (MIC in µg/ml). For the cell cultures Sabouraud media were used. […]

Rhizopus oryzae = assay: as above; format: cell-based; details: Rhizopus arrhizus, Amical in free form
Description: as §1

Aspergillus niger = assay: as above; format: cell-based; details: Amical in free form
Description: as §1

[2] = tested on: Cladosporium cladosporioides; assay: as above; format: cell-based; details: Amical in free form
Description: as §1

MIC (Penicillium citrinum): 3.8 µg/mL
MIC (Rhizopus oryzae): 7.5 to 14 µg/mL
MIC (Aspergillus niger): 1.2 µg/mL
MIC [2]: 1.3 µg/mL
Compound: Cc1ccc(S(=O)(=O)C(I)I)cc1 [Amical, diiodomethyl-p-tolylsulfone]
watersolubility [1]: less than 5 ppm

Source: patent EP0917880A1, “Inclusion complex of diiodomethyl-p-tolylsulfone with cyclodextrin derivatives” (Wacker-Chemie GmbH, priority 1997, dated 1999)
